Source: the supplement of paper PMC10307832

How the values were obtained:
Assay in all cases: relative viability (nuclei count vs DMSO), 5 days (fraction); higher = more cells survive
[1] = compound: COc1cc2nc(N3CCCN(C)CC3)nc(NC3CCN(Cc4ccccc4)CC3)c2cc1OC + CC1(C)CCC(c2ccc(Cl)cc2)=C(CN2CCN(c3ccc(C(=O)NS(=O)(=O)c4ccc(N[C@H](CCN5CCOCC5)CSc5ccccc5)c(S(=O)(=O)C(F)(F)F)c4)cc3)CC2)C1 [Navitoclax] (partner 0.5 µM)
How it was run: (§1)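 Lung cancer cell lines, seeded in 1536-well plates, were treated the following day by pin tool with a single drug or with five library-drug doses (not always all listed) in √10 steps on top of a fixed anchor-drug dose. Cells were fixed and nuclei stained in one step after 5 days, and nuclei were counted. Relative viability is the nuclei count for treated wells divided by that for vehicle wells, reported as medians of duplicate plates.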

AZD6482 + Linsitinib = compound: Cc1cc([C@@H](C)Nc2ccccc2C(=O)O)c2nc(N3CCOCC3)cc(=O)n2c1 [AZD6482] + C[C@]1(O)C[C@@H](c2nc(-c3ccc4ccc(-c5ccccc5)nc4c3)c3c(N)nccn32)C1 [Linsitinib] (partner 1 µM)
How it was run: as §1

AZD6482 + Crizotinib = compound: Cc1cc([C@@H](C)Nc2ccccc2C(=O)O)c2nc(N3CCOCC3)cc(=O)n2c1 [AZD6482] + C[C@@H](Oc1cc(-c2cnn(C3CCNCC3)c2)cnc1N)c1c(Cl)ccc(F)c1Cl [Crizotinib] (partner 1 µM)
How it was run: as §1

[2] = compound: COc1cc2nc(N3CCCN(C)CC3)nc(NC3CCN(Cc4ccccc4)CC3)c2cc1OC + CC(=O)c1c(C)c2cnc(Nc3ccc(N4CCNCC4)cn3)nc2n(C2CCCC2)c1=O [Palbociclib] (partner 0.5 µM)
How it was run: as §1

| Cell Line | relative viability ([1]; first compound 0.2 µM) | relative viability ([1]; first compound 0.6325 µM) | relative viability ([1]; first compound 2 µM) | relative viability ([1]; first compound 6.325 µM) | relative viability (AZD6482 + Linsitinib; first compound 0.08 µM) | relative viability (AZD6482 + Linsitinib; first compound 0.253 µM) | relative viability (AZD6482 + Linsitinib; first compound 0.8 µM) | relative viability (AZD6482 + Linsitinib; first compound 2.53 µM) | relative viability (AZD6482 + Linsitinib; first compound 8 µM) | relative viability (AZD6482 + Crizotinib; first compound 0.08 µM) | relative viability (AZD6482 + Crizotinib; first compound 0.253 µM) | relative viability (AZD6482 + Crizotinib; first compound 0.8 µM) | relative viability (AZD6482 + Crizotinib; first compound 2.53 µM) | relative viability (AZD6482 + Crizotinib; first compound 8 µM) | relative viability ([2]; first compound 0.2 µM) | relative viability ([2]; first compound 0.6325 µM) | relative viability ([2]; first compound 2 µM) | relative viability ([2]; first compound 6.325 µM) |
| --- | --- | --- | --- | --- | --- | --- | --- | --- | --- | --- | --- | --- | --- | --- | --- | --- | --- | --- |
| EBC-1 | 0.408 | 0.386 | 0.382 | 0.165 | 0.559 | 0.76 | 0.788 | 0.348 | 0.408 | 0.19 | 0.154 | 0.212 | 0.216 | 0.2 | – | – | – | – |
| EKVX | 0.826 | 0.926 | 1.04 | 0.881 | 0.716 | 0.6 | 0.646 | 0.362 | 0.544 | 0.855 | 0.939 | 0.788 | 0.537 | 0.584 | 0.407 | 0.412 | 0.395 | 0.301 |
| EMC-BAC-2 | 1.16 | 1.14 | 1.14 | 1.17 | 0.744 | 0.681 | 0.781 | 0.529 | 0.587 | 0.66 | 0.717 | 0.858 | 0.617 | 0.653 | 0.525 | 0.472 | 0.517 | 0.546 |
| EPLC-272H | 1.08 | 1.06 | 1.22 | 1.02 | 0.999 | – | 0.898 | 0.667 | 0.537 | 0.796 | – | 0.835 | 0.649 | 0.584 | 0.326 | 0.322 | 0.316 | 0.346 |
| H3255 | 0.517 | 0.59 | 0.669 | 0.544 | 0.919 | 0.907 | 0.945 | 0.602 | 0.729 | 0.869 | 0.819 | 0.841 | 0.534 | 0.714 | 0.312 | 0.316 | 0.327 | 0.3 |
| HARA | 1.13 | 1.08 | 1.24 | 1.15 | 0.691 | 0.974 | 1.11 | – | 0.775 | 0.857 | 1.04 | 0.839 | – | 0.899 | 0.21 | 0.312 | 0.252 | 0.278 |
| HCC-15 | 0.725 | 0.749 | 0.765 | 0.487 | 0.803 | 0.894 | 0.858 | 0.812 | 0.922 | 0.755 | 0.729 | 0.763 | 0.699 | 0.869 | 0.741 | 0.802 | 0.83 | 0.69 |
| HCC-44 | 0.908 | 0.968 | 1.02 | 0.945 | 0.413 | 0.527 | 0.429 | 0.539 | 0.362 | 0.671 | 0.884 | 0.965 | 0.901 | 0.523 | 0.956 | 0.951 | 0.995 | 0.956 |
| HCC-78 | 0.844 | 0.779 | 0.717 | 0.602 | 0.285 | 0.209 | 0.223 | 0.214 | 0.236 | 0.295 | 0.322 | 0.245 | 0.227 | 0.235 | 0.491 | 0.448 | 0.508 | 0.463 |
